Tests used:
[1] = system: CMA activity (KFERQ-Dendra reporter) in NIH 3T3 fibroblasts; assay: Photoconvertible CMA reporter (KFERQ-Dendra) assay, fluorescent puncta per cell; type: cell-based; settings: NIH 3T3 KFERQ-Dendra; for effect on the number of fluorescent puncta per cell: result in words
Protocol: The photoactivatable CMA reporter assay was constructed by inserting a sequence of 21 amino acid of Ribonuclease A bearing the CMA-targeting motif in the N-terminus multicloning site of the photoactivatable protein mCherry1 or the photoswitchable protein Dendra 2.
NIH 3T3 fibroblasts were stably transduced with a photoconvertible CMA reporter, KFERQ-Dendra and were photoswitched by exposure to a […] (constant current) LED (Norlux, 405 nm) for 10 minutes and at the desired times fixed in 3% formaldehyde. Test cells are exposed to the indicated concentrations of the compounds, e.g. for 12 hours or 24 hours. Cells are imaged, e.g., by using high content microscopy (Operetta, Perkin Elmer) or by capturing images with an Axiovert 200 fluorescence microscope (Zeiss) with apotome and equipped with a 63×1.4 NA oil objective lens and red (ex. 570/30 nm, em. 615/30 nm), cyan (ex. 365/50 nm and em. 530/45 nm) and green (ex. 475/40 nm and em. 535/45 nm) filter sets (Chroma). Images were acquired with a high-resolution CCD camera after optical sectioning through the apotome. CMA activity is measured as the average number of fluorescent puncta (CMA active lysosomes) per cell. Values are expressed relative to values in untreated cells that were assigned an arbitrary value of 1 and are mean of >2,500 cells counted per condition. The S.D. in all instances was <0.01% mean value.

[2] = in vitro
Protocol: Microsome stability is determined in human, rat, and mouse, liver microsomes.
Compound at 3 μM final concentration along with 0.5 mg/mL microsome protein and 1 mM NADPH was incubated for 0, 5, 15, 30 and 60 min. As a negative control, test compound is incubated with microsomes in the absence of NADPH. Samples are quenched with methanol and centrifuged for 25 min at 2500 rpm to precipitate proteins. Supernatants are analyzed (N=3) by LC-MS./MS. The ln peak area ratio (compound peak area/internal standard peak area) is plotted against time and the gradient of the line determined the elimination rate constant [k=(−1)(slope)].
R^2 is the correlation coefficient of the linear regression for the determination of kinetic constant. T1/2 is the half life and CLint (mic) is the intrinsic clearance. CLint(liver)=CLint (mic)*mg microsomal protein/g liver weight*g liver weight/kg body weight. Liver weight/kg body weight is 20 g/kg for human.

In the case of `Clc1ccc2nc(-c3ccc(-c4ccccc4)cc3)oc2c1` [Cmp. 1, 2-([1,1′-biphenyl]-4-yl)-6-chlorobenzo[d]oxazole], the “CMA activity, average number of fluorescent puncta (CMA active lysosomes) per cell, relative to untreated cells (=1)” value ([1]; column 'Time' = 5) is reported as 2.43, the “CMA activity, average number of fluorescent puncta (CMA active lysosomes) per cell, relative to untreated cells (=1)” value ([1]; column 'Time' = 10) is reported as 2.16 and the “CMA activity, average number of fluorescent puncta (CMA active lysosomes) per cell, relative to untreated cells (=1)” value ([1]; column 'Time' = 20) is reported as 2.98. For the same compound, the “CMA activity, average number of fluorescent puncta (CMA active lysosomes) per cell, relative to untreated cells (=1)” value ([1]; column 'Time' = 30) was 3.22, the CLint scaled at 3 μM ([2]; human, microsomes) was under 0.516 L/h/kg and the half-life at 3 μM ([2]; human, microsomes) was over 2.42 h. For the same compound, the CLint(mic) ([2]; human, microsomes, 3 μM) was under 9.6 µL/min/mg and the “Remaining (T = 60 min)” value ([2]; human, microsomes, 1 h, 3 μM) was 83.4%.

For `CC(=O)Nc1ccc(-c2nc3ccc(Cl)cc3o2)cc1` [Cmp. 2, N-(4-(6-chlorobenzo[d]oxazol-2-yl)phenyl)acetamide], the “CMA activity, average number of fluorescent puncta (CMA active lysosomes) per cell, relative to untreated cells (=1)” value ([1]; column 'Time' = 5) was 2.72, the “CMA activity, average number of fluorescent puncta (CMA active lysosomes) per cell, relative to untreated cells (=1)” value ([1]; column 'Time' = 10) was 2.63 and the “CMA activity, average number of fluorescent puncta (CMA active lysosomes) per cell, relative to untreated cells (=1)” value ([1]; column 'Time' = 20) was 3.40. The “CMA activity, average number of fluorescent puncta (CMA active lysosomes) per cell, relative to untreated cells (=1)” value ([1]; column 'Time' = 30) was 5.12.

With `O=C(Nc1ccc(-c2nc3ccc(Cl)cc3o2)cc1)C(F)(F)F` [Cmp. 3, N-(4-(6-chlorobenzo[d]oxazol-2-yl)phenyl)-2,2,2-trifluoroacetamide] the “effect on the number of fluorescent puncta per cell” value (“effect on the number … per cell” for short) [1] was “positive effect”.

For `CC(C)CC(=O)Nc1ccc(-c2nc3ccc(Cl)cc3o2)cc1` [Cmp. 5, N-(4-(6-chlorobenzo[d]oxazol-2-yl)phenyl)-3-methylbutanamide], the “effect on the number … per cell” value [1] was “positive effect”.

With `O=C(Nc1ccc(-c2nc3ccc(Cl)cc3o2)cc1)c1ccc(F)cc1` [Cmp. 6, N-(4-(6-chlorobenzo[d]oxazol-2-yl)phenyl)-4-fluorobenzamide] the “effect on the number … per cell” value [1] was “positive effect”.

With `O=S(=O)(Nc1ccc(-c2nc3ccc(Cl)cc3o2)cc1)c1ccc(F)cc1` [Cmp. 7, N-(4-(6-chlorobenzo[d]oxazol-2-yl)phenyl)-4-fluorobenzenesulfonamide] the “effect on the number … per cell” value [1] was “positive effect”.

With `O=S(=O)(Nc1ccc(-c2nc3ccc(Cl)cc3o2)cc1)C(F)(F)F` [Cmp. 8, N-(4-(6-chlorobenzo[d]oxazol-2-yl)phenyl)-1,1,1-trifluoromethanesulfonamide] the “effect on the number … per cell” value [1] was “positive effect”.

With `FC(F)(F)c1ccc(-c2ccc(-c3nc4ccc(Cl)cc4o3)cc2)cc1` [Cmp. 10, 6-chloro-2-(4′-trifluoromethyl-[1,1′-biphenyl]-4-yl)benzo[d]oxazole] the “effect on the number … per cell” value [1] was “positive effect”.

In the case of `O=C(Nc1ccc(-c2nc3cc(Cl)ccc3o2)cc1)C(F)(F)F` [Cmp. 13, N-(4-(5-chlorobenzo[d]oxazol-2-yl)phenyl)-2,2,2-trifluoroacetamide], the “effect on the number … per cell” value [1] is reported as “positive effect”.

With `O=C(Nc1ccc(-c2ccc(-c3nc4cc(Cl)ccc4o3)cc2)cc1)C(F)(F)F` [Cmp. 14, N-(4′-(5-chlorobenzo[d]oxazol-2-yl)-[1,1′-biphenyl]-4-yl)-2,2,2-trifluoroacetamide] the “effect on the number … per cell” value [1] was “positive effect”.

For `Clc1ccc2c(c1)OCC(c1ccc(-c3ccccc3)cc1)=N2` [Cmp. A], the CLint(mic) ([2]; human, microsomes, 3 μM) was 36.6 µL/min/mg and the “Remaining (T = 60 min)” value ([2]; human, microsomes, 1 h, 3 μM) was 30.1%.

For `O=C(O)Cc1ccccc1Nc1c(Cl)cccc1Cl` [Diclofenac], the “Remaining (T = 60 min)” value ([2]; human, microsomes, 1 h, 3 μM) was 6.8%.

In the case of `C[C@]12CC[C@H]3[C@@H](CCC4=CC(=O)CC[C@@]43C)[C@@H]1CC[C@@H]2O` [Testosterone], the “Remaining (T = 60 min)” value ([2]; human microsomes, 60 min incubation) is reported as 4.6%.

Source: US12473266B2, “Benzoxazole and related compounds useful as chaperone-mediated autophagy modulators” (Albert Einstein College of Medicine, priority 2018, dated 2025)
